In publication PMC9780942, “Antimicrobial Activity and Immunomodulatory Properties of Acidocin A, the Pediocin-like Bacteriocin with the Non-Canonical Structure” (Membranes, 2022):
Positions of bridges follow the written chain, without caps; N, C: chain ends. No end group written: not given here.

How the values were obtained:
L. monocytogenes EGD = format: cell-based, Listeria monocytogenes; settings: 24 h
Method: (§1) Antibacterial activity of recombinant bacteriocins against a number of Gram-positive and Gram-negative bacteria (Table S2) was determined by the method of two-fold serial dilutions in a liquid medium. Two-fold serial dilutions of bacteriocins were prepared in sterile 96-well flat-bottom polystyrene microplates (Eppendorf, Hamburg, Germany) (Cat. No. 0030730.011) in a volume of 50 µL of sterile 0.1% bovine serum albumin (BSA) (SERVA Electrophoresis GmbH, Heidelberg, Germany) to prevent non-specific sorption of peptides to the surface of the plate wells [23]. Mid-log phase bacterial cultures were diluted with the 2x Mueller-Hinton broth (MHB) (Sigma-Aldrich, St. Louis, MO, USA) to a final cell concentration of 10^6 colony forming units (CFU) per mL. To determine the activity of bacteriocins against Listeria and Enterococci, 3% tryptic soy broth (TSB) (Merck-Millipore, Burlington, MA, USA) was used instead of MHB. Aliquots of 50 μL of diluted bacterial suspensions were added to each well of the plate, which was then incubated at 37 °C and 950 rpm for 24 h using thermostatable plate shaker PST-60HL-4 (Biosan, Riga, Latvia). As a negative control, 50 µL of the sterile growth medium (2xMHB or 6% TSB) was added to the wells containing 50 µL of 0.1% BSA. The values of the minimum inhibitory concentrations (MIC) were determined as the minimum concentration of the peptide, at which there was no visible growth of bacterial culture. Incubation for 2 h with 20 µg/mL chromogenic substrate resazurin (Sigma-Aldrich, St. Louis, MO, USA) was used to detect viable bacterial cells if they were difficult to visually detect. To study the effect of inorganic salts on the antimicrobial activity of bacteriocins, antibacterial activity assay was carried out in MHB medium supplemented with 0.9% NaCl.

L. lactis MK43 = assay: Antibacterial activity assay (MIC), two-fold serial dilutions in liquid medium; format: cell-based; settings: MHB, 0.1% BSA, 37 °C, 24 h, no visible growth
Method: as §1

A. baumannii XDR CI 2675 = format: cell-based; settings: XDR CI 2675, 24 h
Method: as §1

B. licheniformis B-511 = format: cell-based; settings: 24 h
Method: as §1

B. subtilis B-886 = format: cell-based; settings: B-886, 24 h
Method: as §1

E. coli ATCC 25922 = format: cell-based; settings: ATCC 25922, 24 h
Method: as §1

E. coli ML-35p = format: cell-based; settings: 24 h
Method: as §1

E. coli SQ110 = format: cell-based; settings: SQ110, 24 h
Method: as §1

E. coli XDR CI 1057 = format: cell-based; settings: XDR CI 1057, 24 h
Method: as §1

L. lactis MK66 = format: cell-based; settings: MK66, 24 h
Method: as §1

M. luteus Ac-2229 = format: cell-based; settings: Ac-2229, 24 h
Method: as §1

M. phlei Ac-1221 = format: cell-based; settings: 24 h
Method: as §1

[1] = tested on: P. aeruginosa MDR CI 1995; format: cell-based; settings: MDR CI 1995, 24 h
Method: as §1

S. aureus 209P = format: cell-based; settings: 24 h
Method: as §1

[2] = tested on: E. coli ML-35p outer membrane; assay: Outer membrane permeability assay with nitrocefin; format: cell-based; settings: PBS pH 7.4 with NaCl, 35 °C, absorbance 492 nm, three independent experiments
Method: (§2) The ability of the peptides to disrupt the integrity of bacterial membranes was assessed using chromogenic substrates that are unable to enter the intact cell. For these assays, E. coli strain ML-35p was chosen that constitutively expresses β-lactamase (secreted into the periplasmic space), β-galactosidase (that is active in cytoplasm), and lacks lactose permease. Nitrocefin, which is a substrate for lactamase, served as an indicator of increased outer membrane permeability. o-Nitrophenyl-β-D-galactopyranoside (ONPG), a substrate for […], was used to assess the integrity of the cytoplasmic membrane. The bacterial cultures were grown to stationary phase in 3% TSB medium at 37 °C overnight. The cells were washed three times with cold 10 mM phosphate-buffered saline (PBS), pH 7.4 ([…], 2.7 mM KCl, 10 mM Na2HPO4, 1.76 mM KH2PO4), and diluted to the concentration of 3.3 × 10^7 CFU/mL with 10 mM PBS (pH 7.4), containing increased concentration of NaCl (1.2%, or 205 mM) and dissolved nitrocefin (Merck-Millipore, Burlington, MA, USA) or ONPG (AppliChem GmbH, Darmstadt, Germany). […] The plate was incubated at 35 °C, 500 rpm, and the absorbance of the hydrolysis products of ONPG or nitrocefin was measured spectrophotometrically at regular intervals at 405 nm or 492 nm, respectively, using AF2200 microplate reader (Eppendorf, Hamburg, Germany). […]

[3] = tested on: E. coli ML-35p cytoplasmic membrane; assay: Cytoplasmic membrane permeability assay with ONPG; format: cell-based; settings: PBS pH 7.4 with NaCl, 35 °C, absorbance 405 nm, three independent experiments
Method: as §2

TYYGTNGVSCNKKGCSVDWGKAISIIGNNSAANLATGGAAGWKS (disulfide 10-15) [AviA(T)]
Minimum Inhibitory Concentration (L. monocytogenes EGD): >32 µM
Minimum Inhibitory Concentration (L. lactis MK43): >32 µM
Minimum Inhibitory Concentration (A. baumannii XDR CI 2675): >32 µM
Minimum Inhibitory Concentration (B. licheniformis B-511): >32 µM
Minimum Inhibitory Concentration (B. subtilis B-886): >32 µM
Minimum Inhibitory Concentration (E. coli ATCC 25922): >32 µM
Minimum Inhibitory Concentration (E. coli ML-35p): >32 µM
Minimum Inhibitory Concentration (E. coli SQ110): >32 µM
Minimum Inhibitory Concentration (E. coli XDR CI 1057): >32 µM
Minimum Inhibitory Concentration (L. lactis MK66): >32 µM
Minimum Inhibitory Concentration (M. luteus Ac-2229): >32 µM
Minimum Inhibitory Concentration (M. phlei Ac-1221): >32 µM
Minimum Inhibitory Concentration [1]: >32 µM
Minimum Inhibitory Concentration (S. aureus 209P): >32 µM
Effect on outer membrane integrity (nitrocefin hydrolysis kinetics) [2]: with the exception of AviA(T), were able to disrupt its integrity
Effect on cytoplasmic membrane integrity (ONPG hydrolysis kinetics) [3]: melittin >> acidocin A ≈ pediocin box mutants > peptides without a disulfide bond > avicin A >> AviA(T)

KTYYGTNGVHCTKNSLWGKVRLKNVKYDQNTTYIGRLQDILLGWATGAFGKTFH [OR-7(VI)]
Minimum Inhibitory Concentration (L. monocytogenes EGD): >64 µM
Minimum Inhibitory Concentration (L. lactis MK43): >32 µM
Minimum Inhibitory Concentration (A. baumannii XDR CI 2675): >32 µM
Minimum Inhibitory Concentration (B. licheniformis B-511): 8 µM
Minimum inhibitory concentration in the presence of NaCl (B. licheniformis B-511): > 32 µM
Minimum Inhibitory Concentration (B. subtilis B-886): 16 µM
Minimum inhibitory concentration in the presence of NaCl (B. subtilis B-886): > 32 µM
Minimum Inhibitory Concentration (E. coli ATCC 25922): >32 µM
Minimum Inhibitory Concentration (E. coli ML-35p): >32 µM
Minimum Inhibitory Concentration (E. coli SQ110): >64 µM
Minimum Inhibitory Concentration (E. coli XDR CI 1057): >64 µM
Minimum Inhibitory Concentration (L. lactis MK66): 4 µM
Minimum inhibitory concentration in the presence of NaCl (L. lactis MK66): > 32 µM
Minimum Inhibitory Concentration (M. luteus Ac-2229): >32 µM
Minimum Inhibitory Concentration (M. phlei Ac-1221): 32 µM
Minimum Inhibitory Concentration [1]: >32 µM
Minimum Inhibitory Concentration (S. aureus 209P): >32 µM
Effect on outer membrane integrity (nitrocefin hydrolysis kinetics) [2]: reduced
